According to ChEMBL document CHEMBL4804281, “STK4 inhibitors for treatment of hematologic malignancies” (2020):

What was measured:
[1] = molecular target: Calcium/calmodulin-dependent protein kinase type II subunit beta (Homo sapiens) (UniProt Q13554); experiment: Inhibition of CAMK2B in human NCI-H929 cells at 10 uM by mass spectroscopic analysis relative to control; type: cell-based
[2] = molecular target: Tyrosine-protein kinase Fyn (Homo sapiens) (UniProt P06241); experiment: Inhibition of FYN in human NCI-H929 cells at 10 uM by mass spectroscopic analysis relative to control; type: cell-based
Chain of Tyrosine-protein kinase Fyn (Homo sapiens) (P06241 2-537 limits assumed): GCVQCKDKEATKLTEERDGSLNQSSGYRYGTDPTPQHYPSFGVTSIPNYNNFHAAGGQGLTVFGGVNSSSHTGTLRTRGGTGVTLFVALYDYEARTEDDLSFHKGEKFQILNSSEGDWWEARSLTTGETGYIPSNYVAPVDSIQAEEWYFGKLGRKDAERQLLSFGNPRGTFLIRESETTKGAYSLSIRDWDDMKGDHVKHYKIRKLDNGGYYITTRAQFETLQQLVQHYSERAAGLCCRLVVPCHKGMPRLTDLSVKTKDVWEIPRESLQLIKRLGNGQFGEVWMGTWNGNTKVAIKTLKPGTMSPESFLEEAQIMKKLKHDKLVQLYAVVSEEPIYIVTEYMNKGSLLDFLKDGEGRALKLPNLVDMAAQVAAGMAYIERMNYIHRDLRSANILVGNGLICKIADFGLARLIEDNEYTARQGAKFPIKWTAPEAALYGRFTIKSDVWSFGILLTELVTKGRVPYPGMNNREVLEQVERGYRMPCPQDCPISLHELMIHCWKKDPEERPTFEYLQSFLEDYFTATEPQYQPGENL

[3] = molecular target: Mitogen-activated protein kinase 8 (Homo sapiens) (UniProt P45983); experiment: Inhibition of JNK1 in human NCI-H929 cells at 10 uM by mass spectroscopic analysis relative to control; type: cell-based
Chain of Mitogen-activated protein kinase 8 (Homo sapiens) (P45983 whole entry): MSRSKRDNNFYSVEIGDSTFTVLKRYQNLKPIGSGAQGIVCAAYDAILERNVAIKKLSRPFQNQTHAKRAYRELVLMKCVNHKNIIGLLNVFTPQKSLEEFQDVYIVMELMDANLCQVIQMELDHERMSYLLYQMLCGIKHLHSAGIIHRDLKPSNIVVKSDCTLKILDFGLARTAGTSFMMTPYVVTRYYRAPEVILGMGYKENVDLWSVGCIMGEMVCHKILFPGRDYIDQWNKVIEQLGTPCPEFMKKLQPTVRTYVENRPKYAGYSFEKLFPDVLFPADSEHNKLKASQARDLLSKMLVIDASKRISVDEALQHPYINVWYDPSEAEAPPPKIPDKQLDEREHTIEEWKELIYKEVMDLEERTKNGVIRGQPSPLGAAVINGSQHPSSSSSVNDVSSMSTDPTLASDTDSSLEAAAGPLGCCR

[4] = molecular target: Mitogen-activated protein kinase 9 (Homo sapiens) (UniProt P45984); experiment: Inhibition of JNK2 in human NCI-H929 cells at 10 uM by mass spectroscopic analysis relative to control; type: cell-based
Chain of Mitogen-activated protein kinase 9 (Homo sapiens) (P45984 whole entry, looked up): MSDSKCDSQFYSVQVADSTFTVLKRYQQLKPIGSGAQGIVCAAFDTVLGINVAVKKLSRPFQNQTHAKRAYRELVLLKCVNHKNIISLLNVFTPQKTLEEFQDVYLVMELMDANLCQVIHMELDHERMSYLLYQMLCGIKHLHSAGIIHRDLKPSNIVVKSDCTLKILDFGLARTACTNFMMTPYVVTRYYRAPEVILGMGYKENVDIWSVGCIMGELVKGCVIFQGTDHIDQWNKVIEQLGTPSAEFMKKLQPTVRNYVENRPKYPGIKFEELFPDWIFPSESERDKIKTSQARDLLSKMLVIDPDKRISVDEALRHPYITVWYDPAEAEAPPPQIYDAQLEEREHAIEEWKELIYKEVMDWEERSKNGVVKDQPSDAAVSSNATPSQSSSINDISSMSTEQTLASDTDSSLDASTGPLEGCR

[5] = molecular target: Mitogen-activated protein kinase 10 (Homo sapiens) (UniProt P53779); experiment: Inhibition of JNK3 in human NCI-H929 cells at 10 uM by mass spectroscopic analysis relative to control; type: cell-based
Chain of Mitogen-activated protein kinase 10 (Homo sapiens) (P53779 whole entry): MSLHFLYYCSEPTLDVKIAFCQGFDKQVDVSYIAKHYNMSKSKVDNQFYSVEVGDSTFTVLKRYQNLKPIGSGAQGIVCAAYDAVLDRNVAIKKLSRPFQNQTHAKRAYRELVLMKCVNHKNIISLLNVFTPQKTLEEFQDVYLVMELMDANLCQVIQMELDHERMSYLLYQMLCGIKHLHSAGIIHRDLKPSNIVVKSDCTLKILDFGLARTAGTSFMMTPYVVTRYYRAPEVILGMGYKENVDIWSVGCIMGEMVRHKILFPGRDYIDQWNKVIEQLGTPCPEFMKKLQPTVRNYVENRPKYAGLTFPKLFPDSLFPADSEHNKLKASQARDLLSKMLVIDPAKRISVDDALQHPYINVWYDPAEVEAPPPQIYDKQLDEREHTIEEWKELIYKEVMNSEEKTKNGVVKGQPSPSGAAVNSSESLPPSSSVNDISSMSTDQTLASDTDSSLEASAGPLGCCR

[6] = molecular target: T1, Kinase suppressor of Ras 1 (Homo sapiens) (UniProt Q8IVT5); experiment: Inhibition of KSR1 in human NCI-H929 cells at 10 uM by mass spectroscopic analysis relative to control; type: cell-based
T1 sequence (whole entry): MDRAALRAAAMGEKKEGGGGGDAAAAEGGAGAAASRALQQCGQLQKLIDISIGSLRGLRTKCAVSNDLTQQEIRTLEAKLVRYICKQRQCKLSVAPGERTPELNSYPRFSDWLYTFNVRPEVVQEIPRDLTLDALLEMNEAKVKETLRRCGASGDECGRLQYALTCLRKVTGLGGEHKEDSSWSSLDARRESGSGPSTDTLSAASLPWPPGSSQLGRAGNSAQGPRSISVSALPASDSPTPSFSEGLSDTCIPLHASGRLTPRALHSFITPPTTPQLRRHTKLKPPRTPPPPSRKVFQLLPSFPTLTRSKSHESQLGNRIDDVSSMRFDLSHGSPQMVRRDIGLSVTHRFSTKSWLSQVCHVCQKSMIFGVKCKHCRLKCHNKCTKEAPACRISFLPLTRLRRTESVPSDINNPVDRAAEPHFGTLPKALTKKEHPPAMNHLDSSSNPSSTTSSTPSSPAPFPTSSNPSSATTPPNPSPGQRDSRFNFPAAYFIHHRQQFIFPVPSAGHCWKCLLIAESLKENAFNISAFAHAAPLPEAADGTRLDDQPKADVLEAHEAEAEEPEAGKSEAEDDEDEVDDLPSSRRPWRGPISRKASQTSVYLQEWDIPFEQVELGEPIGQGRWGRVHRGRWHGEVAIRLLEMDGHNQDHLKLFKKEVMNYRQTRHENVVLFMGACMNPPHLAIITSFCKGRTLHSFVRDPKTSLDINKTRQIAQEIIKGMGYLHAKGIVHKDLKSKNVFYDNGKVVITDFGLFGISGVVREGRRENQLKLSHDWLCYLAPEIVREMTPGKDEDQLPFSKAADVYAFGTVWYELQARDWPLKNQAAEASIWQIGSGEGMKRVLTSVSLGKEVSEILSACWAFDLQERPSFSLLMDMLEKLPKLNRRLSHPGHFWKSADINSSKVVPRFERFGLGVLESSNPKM

[7] = molecular target: MAP kinase-activated protein kinase 3 (Homo sapiens) (UniProt Q16644); experiment: Inhibition of MAPKAPK3 in human NCI-H929 cells at 10 uM by mass spectroscopic analysis relative to control; type: cell-based
Chain of MAP kinase-activated protein kinase 3 (Homo sapiens) (Q16644 whole entry, looked up): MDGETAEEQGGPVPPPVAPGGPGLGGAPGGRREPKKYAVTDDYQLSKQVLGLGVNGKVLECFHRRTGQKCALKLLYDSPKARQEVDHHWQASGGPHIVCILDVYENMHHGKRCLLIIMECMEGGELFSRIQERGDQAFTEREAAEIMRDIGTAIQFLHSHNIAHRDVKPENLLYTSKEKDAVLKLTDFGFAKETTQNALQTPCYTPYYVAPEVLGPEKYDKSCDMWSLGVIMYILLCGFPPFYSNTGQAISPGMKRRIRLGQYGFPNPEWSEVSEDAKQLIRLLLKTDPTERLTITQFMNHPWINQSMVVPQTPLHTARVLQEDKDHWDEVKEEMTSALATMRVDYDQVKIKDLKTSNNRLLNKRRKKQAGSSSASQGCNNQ

[8] = molecular target: Serine/threonine-protein kinase Nek6 (Homo sapiens) (UniProt Q9HC98); experiment: Inhibition of NEK6 in human NCI-H929 cells at 10 uM by mass spectroscopic analysis relative to control; type: cell-based
Chain of Serine/threonine-protein kinase Nek6 (Homo sapiens) (Q9HC98 whole entry): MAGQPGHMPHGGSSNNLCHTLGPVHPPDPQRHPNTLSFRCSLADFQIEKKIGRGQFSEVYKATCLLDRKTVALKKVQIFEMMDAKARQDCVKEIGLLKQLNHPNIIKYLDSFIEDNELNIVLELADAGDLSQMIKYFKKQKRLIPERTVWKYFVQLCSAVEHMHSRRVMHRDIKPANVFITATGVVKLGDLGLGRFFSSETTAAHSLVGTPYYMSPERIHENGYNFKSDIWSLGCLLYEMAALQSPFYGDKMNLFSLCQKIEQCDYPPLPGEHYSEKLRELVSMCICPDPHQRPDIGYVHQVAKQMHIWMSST

[9] = molecular target: T2, Mitogen-activated protein kinase 13 (Homo sapiens) (UniProt O15264); experiment: Inhibition of P38delta in human NCI-H929 cells at 10 uM by mass spectroscopic analysis relative to control; type: cell-based
T2 sequence (whole entry): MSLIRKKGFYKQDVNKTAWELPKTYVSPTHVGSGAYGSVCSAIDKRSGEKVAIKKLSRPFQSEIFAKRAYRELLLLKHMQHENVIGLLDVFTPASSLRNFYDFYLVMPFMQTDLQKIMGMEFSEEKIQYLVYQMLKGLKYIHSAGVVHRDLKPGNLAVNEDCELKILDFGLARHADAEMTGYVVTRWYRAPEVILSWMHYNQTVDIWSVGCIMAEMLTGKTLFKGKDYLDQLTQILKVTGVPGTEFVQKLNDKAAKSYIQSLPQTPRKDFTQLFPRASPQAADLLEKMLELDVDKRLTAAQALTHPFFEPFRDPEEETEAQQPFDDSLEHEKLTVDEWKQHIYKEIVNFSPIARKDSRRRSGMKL

[10] = molecular target: Phosphatidylinositol 4-kinase alpha (Homo sapiens) (UniProt P42356); experiment: Inhibition of PI4KA in human NCI-H929 cells at 10 uM by mass spectroscopic analysis relative to control; type: cell-based
[11] = molecular target: Putative phosphatidylinositol 4-kinase alpha-like protein P2 (Homo sapiens) (UniProt A4QPH2); experiment: Inhibition of PI4KAP2 in human NCI-H929 cells at 10 uM by mass spectroscopic analysis relative to control; type: cell-based
Chain of Putative phosphatidylinositol 4-kinase alpha-like protein P2 (Homo sapiens) (A4QPH2 whole entry): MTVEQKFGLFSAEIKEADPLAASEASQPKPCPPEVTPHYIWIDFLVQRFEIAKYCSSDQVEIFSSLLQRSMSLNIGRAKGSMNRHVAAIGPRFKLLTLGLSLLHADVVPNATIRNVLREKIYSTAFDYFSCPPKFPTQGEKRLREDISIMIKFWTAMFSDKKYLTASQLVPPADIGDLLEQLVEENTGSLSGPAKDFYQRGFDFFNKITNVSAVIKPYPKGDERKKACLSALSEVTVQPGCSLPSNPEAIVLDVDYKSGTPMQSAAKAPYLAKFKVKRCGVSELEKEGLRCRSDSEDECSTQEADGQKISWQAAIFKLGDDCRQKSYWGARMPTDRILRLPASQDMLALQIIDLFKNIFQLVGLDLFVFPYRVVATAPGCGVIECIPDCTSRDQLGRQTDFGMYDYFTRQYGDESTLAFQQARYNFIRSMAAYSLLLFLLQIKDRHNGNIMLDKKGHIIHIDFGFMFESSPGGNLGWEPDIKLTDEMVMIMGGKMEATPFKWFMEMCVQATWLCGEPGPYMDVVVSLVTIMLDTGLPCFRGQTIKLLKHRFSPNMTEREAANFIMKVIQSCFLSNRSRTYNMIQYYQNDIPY

[12] = molecular target: PRKCI, protein kinase C iota (Homo sapiens) (UniProt P41743); experiment: Inhibition of PKCi in human NCI-H929 cells at 10 uM by mass spectroscopic analysis relative to control
Chain of PRKCI, protein kinase C iota (Homo sapiens) (P41743 whole entry, looked up): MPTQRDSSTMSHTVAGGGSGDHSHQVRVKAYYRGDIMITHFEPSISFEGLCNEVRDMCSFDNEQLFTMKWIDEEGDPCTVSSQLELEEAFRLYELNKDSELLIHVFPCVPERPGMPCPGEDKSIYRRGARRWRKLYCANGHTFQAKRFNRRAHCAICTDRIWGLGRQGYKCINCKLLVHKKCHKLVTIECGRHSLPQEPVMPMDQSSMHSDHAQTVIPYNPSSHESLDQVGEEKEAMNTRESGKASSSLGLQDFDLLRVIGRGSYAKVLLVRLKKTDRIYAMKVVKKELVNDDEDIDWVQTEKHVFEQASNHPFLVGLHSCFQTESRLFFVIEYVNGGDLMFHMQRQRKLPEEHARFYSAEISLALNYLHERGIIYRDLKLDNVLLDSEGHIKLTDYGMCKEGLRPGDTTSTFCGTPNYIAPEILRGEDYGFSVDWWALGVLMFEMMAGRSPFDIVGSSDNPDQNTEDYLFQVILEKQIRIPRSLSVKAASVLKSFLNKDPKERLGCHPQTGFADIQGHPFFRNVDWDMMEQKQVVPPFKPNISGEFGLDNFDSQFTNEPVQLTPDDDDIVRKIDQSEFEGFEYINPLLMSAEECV

Chain of Calcium/calmodulin-dependent protein kinase type II subunit beta (Homo sapiens) (Q13554 whole entry): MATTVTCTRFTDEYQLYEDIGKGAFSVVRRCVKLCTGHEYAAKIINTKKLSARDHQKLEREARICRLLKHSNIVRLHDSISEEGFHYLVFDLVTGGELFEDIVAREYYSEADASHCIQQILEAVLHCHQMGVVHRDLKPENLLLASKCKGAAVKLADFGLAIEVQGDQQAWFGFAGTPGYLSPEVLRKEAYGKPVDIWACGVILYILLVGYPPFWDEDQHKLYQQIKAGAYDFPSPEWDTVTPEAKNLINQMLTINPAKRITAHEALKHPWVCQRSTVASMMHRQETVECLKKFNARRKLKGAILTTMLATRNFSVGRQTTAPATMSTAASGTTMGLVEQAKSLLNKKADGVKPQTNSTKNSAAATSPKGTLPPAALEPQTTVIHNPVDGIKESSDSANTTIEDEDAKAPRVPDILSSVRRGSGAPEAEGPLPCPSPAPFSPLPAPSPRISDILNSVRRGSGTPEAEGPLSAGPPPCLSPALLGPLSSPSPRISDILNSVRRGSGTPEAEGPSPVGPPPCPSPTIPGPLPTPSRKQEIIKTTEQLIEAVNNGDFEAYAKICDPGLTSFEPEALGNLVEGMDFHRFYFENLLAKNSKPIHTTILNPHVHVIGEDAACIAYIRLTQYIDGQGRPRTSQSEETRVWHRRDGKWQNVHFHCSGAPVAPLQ

Row | SMILES | inhibition [1] [%] | inhibition [2] [%] | inhibition [3] [%] | inhibition [4] [%] | inhibition [5] [%] | inhibition [6] [%] | inhibition [7] [%] | inhibition [8] [%] | inhibition [9] [%] | inhibition [10] [%] | inhibition [11] [%] | inhibition [12] [%]
1 | Nc1ncc(-c2cccc3ncsc23)cc1-c1ccc2c(c1)CCNC2=O | 0 | 0 | 0 | 0 | 0 | 0 | 0 | 0 | 0 | 0 | 0 | 0
2 | Nc1ncc(-c2cccc([N+](=O)[O-])c2F)cc1-c1ccc2c(c1)CCNC2=O | 0 | 0 | 0 | 0 | 0 | 0 | 0 | 0 | 0 | 0 | 0 | 0
3 | CN(C1CC1)S(=O)(=O)c1ccc(-c2cnc(N)c(-c3ccc4c(c3)CCNC4=O)c2)c(F)c1 | 0 | 0 | 0 | 0 | 0 | 0 | 0 | 0 | 0 | 0 | 0 | 0
4 | Nc1ncc(-c2ccc(NS(=O)(=O)C3CC3)cc2OC2CCCCC2)cc1-c1ccc2c(c1)CCNC2=O | 0 | 0 | 0 | 0 | 0 | 0 | 0 | 0 | 0 | 0 | 0 | 0
5 | Nc1ncc(-c2ccc(NS(=O)(=O)C3CC3)cc2F)cc1-c1ccc2c(c1)CCNC2=O | 0 | 0 | 0 | 0 | 0 | 0 | 0 | 0 | 0 | 0 | 0 | 0
6 | COc1cc(NS(=O)(=O)C2CC2)ccc1-c1cnc(N)c(-c2ccc3c(c2)CCNC3=O)c1 | 0 | 0 | 0 | 0 | 75 | 0 | 0 | 0 | 0 | 0 | 0 | 0
